Results published in BigSolDB 2.1.

NC(=O)Cc1ccc(O)cc1
solubility (mole fraction)
Details | 278.15 K | 283.15 K | 288.15 K | 293.15 K | 298.15 K | 303.15 K | 308.15 K | 313.15 K | 318.15 K | 323.15 K
in acetonitrile | 0.00096 | 0.00141 | 0.00188 | 0.00249 | 0.00305 | 0.00376 | 0.00463 | 0.00573 | 0.00705 | 0.00869
in ethanol | 0.00381 | 0.00459 | 0.00534 | 0.00638 | 0.00752 | 0.00902 | 0.0107 | 0.0126 | 0.015 | 0.0179
in ethyl acetate | 0.0017 | 0.00196 | 0.00238 | 0.00297 | 0.00363 | 0.00455 | 0.00557 | 0.00663 | 0.0078 | 0.00932
in isopropanol | 0.00319 | 0.00379 | 0.0046 | 0.00552 | 0.00684 | 0.00852 | 0.0102 | 0.0122 | 0.0142 | 0.0164
in methanol | 0.0075 | 0.00824 | 0.00951 | 0.0111 | 0.0128 | 0.0148 | 0.0169 | 0.0192 | 0.0218 | 0.0246
in methyl acetate | 0.0032 | 0.00359 | 0.00415 | 0.00486 | 0.00577 | 0.0068 | 0.00779 | 0.00908 | 0.0103 | 0.0118
in n-butanol | 0.00284 | 0.00346 | 0.00428 | 0.00508 | 0.00642 | 0.00754 | 0.00899 | 0.0106 | 0.0125 | 0.0144
in n-butyl acetate | 0.00269 | 0.003 | 0.00345 | 0.0041 | 0.00491 | 0.00587 | 0.00694 | 0.00812 | 0.00935 | 0.0105
in n-heptane | 0.00061 | 0.00087 | 0.00111 | 0.00145 | 0.00194 | 0.00253 | 0.00329 | 0.00418 | 0.00509 | 0.00627
in n-hexane | 0.00032 | 0.00053 | 0.00082 | 0.00116 | 0.00151 | 0.00205 | 0.00263 | 0.00343 | 0.00438 | 0.0056
in n-propanol | 0.00215 | 0.00245 | 0.00292 | 0.0035 | 0.00424 | 0.0052 | 0.00629 | 0.00734 | 0.00868 | 0.01
in water | 0.00096 | 0.00141 | 0.00188 | 0.00249 | 0.00305 | 0.00376 | 0.00463 | 0.00573 | 0.00705 | 0.00869
